Experiments:
Type in all cases: cell-based
RKO = test: Cell proliferation (cell count by microscopy), Example 3; conditions: Homo sapiens, single agent, 72 h, cell count relative to DMSO
Procedure: (§1) COMPOUNDS A, B and C were dissolved in 100% DMSO (Sigma, Catalog number D2650) at concentrations of 20 mM and stored at −20° C. until use. Compounds were arrayed in drug master plates (Greiner, Catalog number 788876) and serially diluted 3-fold (7 steps) at 2000× concentration.
(§2) To test the effect of the combination of COMPOUND A, COMPOUND B, and COMPOUND C on cell proliferation cells were plated in black 384-well microplates with clear bottom (Matrix/Thermo Scientific, Catalog number 4332) in 50 μL media per well at cell densities between 500 and 1250 cells/well (Table 1 above) and allowed to incubate at 37 degrees, 5% CO2 for 24 h. After 24 h one 384-well plate per cell line was prepared for cell counting by microscopy (see below) without receiving treatment (=‘baseline’). The other cell plates were treated by transferring 25 nL of the 2000× compound from drug master plates using an ATS acoustic liquid dispenser (ECD Biosystems) and resulting in a final 1× concentration. COMPOUND A was used over a final concentration range of 13 nM-10 μM, COMPOUND B was used over a final concentration range of 13 nM-10 μM, and COMPOUND C was used over a final concentration range of 13 nM-10 μM (7 1:3 dilution steps). In order to assess the effect of the triple combination all individual COMPOUNDS (A, B, C), all three pair wise combinations (A+B, A+C, B+C), and the triple combination (A+B+C) were tested in the same experiment. Pair wise combinations and the triple combination were tested at a fixed ratio of 1:1 (for drug pairs) and 1:1:1 (for the drug triple) at each dilution resulting in 7 combination conditions per treatment. […] After compound addition 50 nL of 2 mM CellEvent Caspase-3/7 Green Detection Reagent (ThermoFisher, Catalog number C10423) were added to one of the three replicates using the HP D300 Digital Dispenser (Tecan). Caspase 3/7 induction was measured as a proxy for apoptosis induced by the treatments. Cells were treated for 72 h to 96 h depending on their doubling time (Table 1), and Caspase 3/7 activation was measured every 24 h by microscopy using an InCell Analyzer 2000 (GE Healthcare) equipped with a 4× objective and FITC excitation/emission filters. At the end of the treatment cells were prepared for cell counting by microscopy. Cells were fixed and permeabilised for 45 minutes in 4% PFA (Electron Microscopy Sciences, Catalog number 15714), 0.12% TX-100 (Electron Microscopy Sciences, Catalog number 22140) in PBS (Boston Bioproducts, Catalog number BM-220). After washing cells three times with PBS their DNA was stained for 30 minutes with Hoechst 33342 (ThermoFisher, Catalog number H3570) at a final concentration of 4 μg/mL. Cells were washed three times with PBS and then plates were heat-sealed using a PlateLoc (Agilent Technologies) with aluminum seals (Agilent Technologies, Catalog number 06644-001) and stored at 4° C. until imaging. All cells per well/treatment were captured in a single image by fluorescence microscopy using an InCell Analyzer 2000 (GE Healthcare) equipped with a 4× objective and DAPI excitation/emission filters.
(§3) Images were analyzed after adapting previously described methods (Horn, Sandmann et al. 2011, Nat. Methods 8(4): 341-346) and using the Bioconductor package EBImage in R (Pau, Fuchs et al. 2010, Bioinformatics 26(7):979-981). Objects in both channels, DAPI (for Hoechst/DNA) and FITC (for Caspase 3/7), were segmented separately by adaptive thresholding and counted. A threshold for Caspase 3/7 positive objects was defined manually per cell line after comparing negative controls (DMSO) and positive controls (Staurosporine). By analyzing 17 additional object/nuclei features in the DNA channel (shape and intensity features) debris/fragmented nuclei were identified. To this end per cell line the distributions of the additional features between positive controls (Staurosporine) and negative controls (DMSO) were compared manually. […]

LS-180 = test: as above; conditions: Homo sapiens, LS180; LS-160 (so in the source), single agent, 72 h, cell count relative to DMSO
Procedure: as §1, §2, §3

LoVo = test: as above; conditions: Homo sapiens, single agent, 96 h, cell count relative to DMSO
Procedure: as §1, §2, §3

GP2d = test: as above; conditions: single agent, 72 h, cell count relative to DMSO, unit (micromolar, top dose 10 μM)
Procedure: as §1, §2, §3

HCT-116 = test: as above; conditions: Homo sapiens; HCT-116, single agent, 72 h, cell count relative to DMSO
Procedure: as §1, §2, §3

[1] = tested on: 5 TP53 wild type colorectal cancer cell lines; test: Cell proliferation over the cell line panel, Example 3; conditions: Example 3, panel of 5 lines, 13 nM-10 μM
Procedure: To test the effect of the combination of COMPOUND A, COMPOUND B, and COMPOUND C on cell proliferation cells were plated in black 384-well microplates with clear bottom (Matrix/Thermo Scientific, Catalog number 4332) in 50 μL media per well at cell densities between 500 and 1250 cells/well (Table 1 above) and allowed to incubate at 37 degrees, 5% CO2 for 24 h. After 24 h one 384-well plate per cell line was prepared for cell counting by microscopy (see below) without receiving treatment (=‘baseline’). The other cell plates were treated by transferring 25 nL of the 2000× compound from drug master plates using an ATS acoustic liquid dispenser (ECD Biosystems) and resulting in a final 1× concentration. COMPOUND A was used over a final concentration range of 13 nM-10 μM, COMPOUND B was used over a final concentration range of 13 nM-10 μM, and COMPOUND C was used over a final concentration range of 13 nM-10 μM (7 1:3 dilution steps). In order to assess the effect of the triple combination all individual COMPOUNDS (A, B, C), all three pair wise combinations (A+B, A+C, B+C), and the triple combination (A+B+C) were tested in the same experiment. […] Caspase 3/7 induction was measured as a proxy for apoptosis induced by the treatments. Cells were treated for 72 h to 96 h depending on their doubling time (Table 1), and Caspase 3/7 activation was measured every 24 h by microscopy using an InCell Analyzer 2000 (GE Healthcare) equipped with a 4× objective and FITC excitation/emission filters. […] All cells per well/treatment were captured in a single image by fluorescence microscopy using an InCell Analyzer 2000 (GE Healthcare) equipped with a 4× objective and DAPI excitation/emission filters.
Images were analyzed after adapting previously described methods (Horn, Sandmann et al. 2011, Nat. Methods 8(4): 341-346) and using the Bioconductor package EBImage in R (Pau, Fuchs et al. 2010, Bioinformatics 26(7):979-981). Objects in both channels, DAPI (for Hoechst/DNA) and FITC (for Caspase 3/7), were segmented separately by adaptive thresholding and counted. […]

IC50 (LoVo): > 10 µM
IC50 (HCT-116): > 10 µM
Structure (SMILES): CC1(C)CCC(c2ccc(Cl)cc2)=C(CN2CCN(c3ccc(C(=O)NS(=O)(=O)c4ccc(N[C@H](CCN5CCOCC5)CSc5ccccc5)c(S(=O)(=O)C(F)(F)F)c4)cc3)CC2)C1 [COMPOUND C, 4-[4-[[2-(4-Chlorophenyl)-5,5-dimethyl-1-cyclohexen-1-yl]methyl]-1-piperazinyl]-N-[[4-[[(1R)-3-(4-morpholinyl)-1-[(phenylthio)methyl]propyl]amino]-3-[(trifluoromethyl)sulfonyl]phenyl]sulfonyl]benzamide, reference compound]
IC50 (RKO): > 10 µM
IC50 (LS-180): > 10 µM
IC50 (GP2d): > 10 µM
Single agent growth inhibition, in words [1]: no single agent efficacy
